Entries after “also recorded” stand apart in the source; their conditions may differ. Each block holds one compound with its values, some of them ahead of it.
Key:
[1] = molecular target: T1, caspase-8 (Homo sapiens, UniProt Q14790); experiment: IC50 assay with recombinant caspase-8; type: biochemical; conditions: for IC50: mean±s.d.
T1 construct: purchased Millipore (Billerica, MA)
Procedure: Caspase-3 and 8 – The enzyme was pre-incubated with inhibitor in assay buffer (100 mM HEPES pH 7.4, 0.1% CHAPS, 10% Sucrose) for 10 min at 37 °C.
To determine the IC50 values of the compounds towards δ-secretase, cathepsin-S, cathepsin-L, caspase-3 and caspase-8, purified recombinant enzyme was incubated in appropriate assay buffers in the presence of increasing concentrations of inhibitors. The formation of fluorescent product was monitored in duplicate reactions and the data were fit to appropriate equations to calculate the IC50 values.

[2] = Liver microsomal stability, human; conditions: Human microsomes, 30 min, 37 °C
Procedure: (§1) Supplementary Table 4: Liver microsomal stability
(§2) Compound Species Mean Remaining Parent Mean Remaining Parent
(§3) (with NADPH) (NADPH-free)
(§4) The test agents were incubated in duplicate with microsomes at 37 °C for 30 min. The reaction contained microsomal protein in 100 mM potassium phosphate, 2 mM NADPH, 3 mM MgCl2, pH 7.4. A control was run for each test agent omitting NADPH to detect NADPH-free degradation. Data are reported as % remaining of parent compound. ND, Peak not detected due to bioanalysis issue (poor ionization).

[3] = Liver microsomal stability, mouse; conditions: Mouse microsomes, 30 min, 37 °C
Procedure: as §1, §2, §3, §4

[4] = molecular target: T2, δ-secretase (Homo sapiens, UniProt Q99538); experiment: DTT and L-cysteine reversibility of δ-secretase inhibition; type: biochemical; conditions: 10 mM DTT or L-cysteine, inhibitor at its IC50
T2 construct: tested with purified active δ-secretase, IC50 values for the top 8 candidates were calculated; purchased Sino Biological (Beijing, China)
T2 sequence (Q99538 18-323 limits assumed): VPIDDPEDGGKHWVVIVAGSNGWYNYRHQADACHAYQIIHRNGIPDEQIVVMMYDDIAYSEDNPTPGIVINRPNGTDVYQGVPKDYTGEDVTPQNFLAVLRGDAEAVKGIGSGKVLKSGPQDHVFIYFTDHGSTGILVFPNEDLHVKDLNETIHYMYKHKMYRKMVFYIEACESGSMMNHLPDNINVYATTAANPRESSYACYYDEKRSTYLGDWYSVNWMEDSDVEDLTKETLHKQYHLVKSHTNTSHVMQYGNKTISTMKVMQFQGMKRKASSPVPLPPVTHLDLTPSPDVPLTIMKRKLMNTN

[5] = molecular target: CYP2C9 (Homo sapiens, UniProt P11712); experiment: CYP inhibition screening in microsomes; conditions: pH 7.4
[6] = molecular target: CYP2C19 (Homo sapiens, UniProt P33261); experiment: CYP inhibition screening in microsomes; conditions: pH 7.4
[7] = molecular target: T3, δ-secretase in Pala cells (Homo sapiens, UniProt Q99538); experiment: δ-secretase inhibition in intact Pala cells
T3 sequence (Q99538 18-433): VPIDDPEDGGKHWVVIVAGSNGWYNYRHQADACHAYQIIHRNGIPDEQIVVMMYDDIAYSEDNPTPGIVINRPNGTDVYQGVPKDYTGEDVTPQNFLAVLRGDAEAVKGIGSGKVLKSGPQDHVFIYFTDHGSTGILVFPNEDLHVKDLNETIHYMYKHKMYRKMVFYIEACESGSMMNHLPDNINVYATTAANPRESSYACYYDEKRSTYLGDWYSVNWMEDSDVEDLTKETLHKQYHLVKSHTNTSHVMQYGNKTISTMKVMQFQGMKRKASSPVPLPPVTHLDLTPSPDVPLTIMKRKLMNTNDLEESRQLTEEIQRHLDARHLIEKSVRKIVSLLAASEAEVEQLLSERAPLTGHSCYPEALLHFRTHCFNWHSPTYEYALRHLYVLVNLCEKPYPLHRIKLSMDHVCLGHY
Procedure: Cells were collected, washed twice with PBS and lysed in Lysis Buffer (20 mM citric acid, 60 mM disodium hydrogen orthophosphate, 1 mM EDTA, 0.1% CHAPS, pH 5.8). […] Data were analysed with GraFit version 5.0.11 software package.
δ-secretaseactivity assay.

[8] = system: Caco-2 monolayer; experiment: Caco-2 monolayer permeability screen
Procedure: Supplementary Table 3: Caco-2 permeability and BBB-PAMPA permeability
For CaCo-2 permeability assay, cells were incubated with 10 µM of these reagents in
buffers for 2 h, and the receiver side buffer is removed for analysis by LC/MS/MS. Efflux […]
LLOQ: Lower Limit of Quantification; Papp: apparent permeability.

[9] = NMR stability and thiol reactivity (cysteamine, β-mercaptoethanol); type: physicochemical
[10] = Single-dose pharmacokinetics, IV and oral; conditions: for serum concentration: all three animals
Source text: Two months old CD-1 male mice were orally
serum was collected at indicated time points with each group of 3 mice (mean ± s.d.).

[11] = male, CD-1, mouse, in vivo, iv, 2 mg kg-1
[12] = male, CD-1, mouse, in vivo, po, 10 mg kg-1
[13] = male, CD-1, mouse, serum, iv, 2 mg/kg
[14] = male, CD-1, mouse, serum, po, 10 mg/kg

Sequence of CYP2C9 (P11712 whole entry): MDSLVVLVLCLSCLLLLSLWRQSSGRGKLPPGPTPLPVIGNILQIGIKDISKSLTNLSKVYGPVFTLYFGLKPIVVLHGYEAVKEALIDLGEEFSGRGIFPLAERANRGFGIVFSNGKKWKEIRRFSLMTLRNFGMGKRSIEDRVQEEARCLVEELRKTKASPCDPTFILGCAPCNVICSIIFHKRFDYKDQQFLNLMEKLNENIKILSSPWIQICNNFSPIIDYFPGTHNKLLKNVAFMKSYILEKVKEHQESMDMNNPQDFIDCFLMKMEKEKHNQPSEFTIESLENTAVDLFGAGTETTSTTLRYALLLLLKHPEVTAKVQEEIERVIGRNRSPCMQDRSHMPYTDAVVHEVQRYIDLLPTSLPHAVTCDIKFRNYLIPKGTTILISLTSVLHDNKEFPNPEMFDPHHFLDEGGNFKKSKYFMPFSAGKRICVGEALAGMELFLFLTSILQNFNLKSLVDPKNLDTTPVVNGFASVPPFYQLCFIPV
Sequence of CYP2C19 (P33261 whole entry): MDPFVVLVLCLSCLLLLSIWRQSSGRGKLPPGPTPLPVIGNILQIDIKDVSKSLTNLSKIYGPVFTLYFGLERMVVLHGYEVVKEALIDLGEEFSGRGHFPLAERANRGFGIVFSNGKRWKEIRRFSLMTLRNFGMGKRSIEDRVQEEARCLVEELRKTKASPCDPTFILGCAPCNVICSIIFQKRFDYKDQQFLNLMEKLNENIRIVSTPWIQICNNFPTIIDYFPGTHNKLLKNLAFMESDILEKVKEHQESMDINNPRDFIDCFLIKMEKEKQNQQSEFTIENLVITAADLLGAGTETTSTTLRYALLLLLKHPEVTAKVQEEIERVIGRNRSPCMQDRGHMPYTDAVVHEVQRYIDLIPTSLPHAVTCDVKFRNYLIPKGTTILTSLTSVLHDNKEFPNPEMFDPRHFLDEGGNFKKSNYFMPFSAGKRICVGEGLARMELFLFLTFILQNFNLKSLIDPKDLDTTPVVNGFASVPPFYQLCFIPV
T1 sequence (Q14790 217-374 limits assumed, species assumed): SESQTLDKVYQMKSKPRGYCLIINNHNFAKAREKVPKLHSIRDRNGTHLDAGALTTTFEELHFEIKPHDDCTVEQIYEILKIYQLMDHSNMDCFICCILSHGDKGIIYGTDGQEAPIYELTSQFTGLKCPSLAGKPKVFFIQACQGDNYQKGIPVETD
T1 sequence (Q14790 385-479 limits assumed, species assumed): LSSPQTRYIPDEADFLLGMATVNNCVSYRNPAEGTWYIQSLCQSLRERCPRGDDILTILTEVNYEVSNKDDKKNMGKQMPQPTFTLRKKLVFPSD

selectivity for δ-secretase compared to caspase-8 [1]: at least 80 fold
IC50 [1]: 76.1 ± 8.12 µM
Mean Remaining Parent (NADPH-free) [2]: 107%
Mean Remaining Parent (with NADPH) [2]: 88%
Mean Remaining Parent (NADPH-free) [3]: 99%
Mean Remaining Parent (with NADPH) [3]: 98%
inhibition at 10 min, 3 µM [5]: 15.6%
inhibition at 10 min, 10 µM [5]: 17.1%
inhibition at 10 min, 3 µM [6]: -12%
inhibition at 10 min, 10 µM [6]: 9.5%
IC50 [7]: 0.11 ± 0.05 µM
SMILES: Cn1c(=O)[nH]c(=O)c2c1nc(S)n2CC(O)COc1ccc(Cl)cc1 (stereo not drawn) [compound 38]
recovery of δ-secretase activity on addition of reducing agents [4]: regained a substantial amount of activity

SMILES: Nc1ccc(N2CCOCC2)c2nonc12 [compound 11, 7-(morpholin-4-yl)-2,1,3-benzoxadiazol-4-amine]
IC50 [1]: 86.7 ± 10.3 µM
Caco-2 permeability in words [8]: highly permeable
Mean Remaining Parent (NADPH-free) [2]: 93%
Mean Remaining Parent (with NADPH) [2]: 76%
Mean Remaining Parent (NADPH-free) [3]: 103%
Mean Remaining Parent (with NADPH) [3]: 20%
reaction with β-mercaptoethanol [9]: did not react; also recorded: unreactive
stability by NMR spectroscopy ([9]; presence or absence of cysteamine): stable
inhibition at 10 min, 3 µM [5]: 4.3%
inhibition at 10 min, 10 µM [5]: 5.6%
inhibition at 10 min, 3 µM [6]: 4.4%
inhibition at 10 min, 10 µM [6]: 6.8%
serum concentration ([10]; IV 2 mg kg-1, 8.00 h): BLQ
serum concentration ([10]; IV 2 mg kg-1, 24.00 h): BLQ
concentration at 0.08 h [10, 11]: 230 ng/mL
concentration at 0.5 h [10, 11]: 13.3 ng/mL
concentration at 1 h [10, 11]: 3.5 ng/mL
concentration at 2 h [10, 11]: 3.8 ng/mL
concentration at 4 h [10, 11]: 3.1 ng/mL
concentration at 0.5 h [10, 12]: 81.1 ng/mL
concentration at 1 h [10, 12]: 27.2 ng/mL
concentration at 2 h [10, 12]: 13.3 ng/mL
concentration at 4 h [10, 12]: 11.6 ng/mL
concentration at 8 h [10, 12]: 3.8 ng/mL
AUC(0-inf) [10, 13]: 61.2 ng·h/mL
AUC(0-t) [10, 13]: 61.1 ng·h/mL
Cmax [10, 13]: 230 ng/mL
MRT last [10, 13]: 18 min
Vd [10, 13]: 10.8 L/kg
clearance [10, 13]: 554 mL/min/kg
half-life [10, 13]: 13.2 min
bioavailability ([10]; male, CD-1, mouse, serum, oral, 10 mg kg-1, F (oral bioavailability), mean, oral 10 mg kg-1 vs IV 2 mg kg-1): 69%
AUC(0-inf) [10, 14]: 223 ng·h/mL
AUC(0-t) [10, 14]: 211 ng·h/mL
CL/F [10, 14]: 824 mL/min/kg
Cmax [10, 14]: 447 ng/mL
MRT last [10, 14]: 69 min
Tmax [10, 14]: 15 min
Vd/F [10, 14]: 134 L/kg
half-life [10, 14]: 139 min
serum concentration ([10]; oral 10 mg kg-1, 24.00 h): BLQ
F (oral bioavailability), mean ([10]; oral 10 mg kg-1 vs IV 2 mg kg-1): ~70%

IC50 [1]: > 100 µM
Caco-2 permeability in words [8]: highly permeable
Mean Remaining Parent (NADPH-free) [2]: 75%
Mean Remaining Parent (with NADPH) [2]: 12%
Mean Remaining Parent (NADPH-free) [3]: 86%
Mean Remaining Parent (with NADPH) [3]: 16%
inhibition at 10 min, 3 µM [5]: 47.8%
inhibition at 10 min, 10 µM [5]: 69.2%
inhibition at 10 min, 3 µM [6]: 37.7%
inhibition at 10 min, 10 µM [6]: 55.7%
IC50 [7]: 0.67 ± 0.4 µM
SMILES: COc1ccc(N2CCN(C(c3ccc(N(C)C)cc3)c3nnnn3C(C)(C)C)CC2)cc1 (stereo not drawn) [compound 31]

IC50 [1]: > 200 µM
Mean Remaining Parent (NADPH-free) [2]: 1%
Mean Remaining Parent (with NADPH) [2]: 1%
Mean Remaining Parent (NADPH-free) [3]: 0%
Mean Remaining Parent (with NADPH) [3]: 1%
inhibition at 10 min, 3 µM [5]: 4.3%
inhibition at 10 min, 10 µM [5]: -2.7%
inhibition at 10 min, 3 µM [6]: 13.4%
inhibition at 10 min, 10 µM [6]: 29.4%
IC50 [7]: 0.43 ± 0.21 µM
SMILES: Cc1cccc(NCc2ccc(O)c3ncccc23)c1C [compound 12]

From article PMC5378956, “Inhibition of delta-secretase improves cognitive functions in mouse models of Alzheimer's disease” (Nature Communications, 2017)
